Laboratory results published in patent US8952059B2, “Acetyl L-carnitine for the preparation of a medicament for the prevention of painful peripheral neuropathy in patients with type 2 diabetes” (Sigma-Tau Industrie Farmaceutiche Riunite S.P.A., priority 2005, dated 2015).
Like-named read-outs stand apart in the source and are kept apart here.

How the values were obtained:
[1] = test system: patients with type 2 diabetes (symptoms of painful peripheral neuropathy); experiment: Clinical Trial BM 14329: multicentre, randomised, double-blind, placebo-controlled, 52 weeks; type: in vivo, human; conditions: for Patients with symptom: Pain / Patients with symptom: Pain, hyperaesthesia, paraesthesia: 3.0 g/day; for Patients with symptom: Pain: n = 217 type 2 diabetes patients without the symptom at basal; for Patients with symptom: Pain, hyperaesthesia, paraesthesia: n = 217 type 2 diabetes patients without the symptoms at basal
Description: (§1) A multicentre, randomised, double-blind, placebo-controlled clinical trial of 52 weeks' duration was conducted in patients with type 2 diabetes suffering from diabetic peripheral neuropathy.
(§2) The patients were treated with acetyl L-carnitine at a dose of 0.5 grams or 1 gram, three times daily, or with placebo for 52 weeks.
(§3) The patients recruited into the trial were patients of male and female sex and were aged from 18 to 70 years, in whom diabetes had been diagnosed more than one year earlier and presenting HbA1c greater than 5.9%.
(§4) After 12, 26 and 52 weeks of treatment, the presence and intensity of pain, paraesthesia and hyperaesthesia, amongst other variables, were assessed as characteristic symptoms of painful peripheral neuropathy in patients who at the time of recruitment presented no such symptoms.

[2] = test system: patients with type 2 diabetes (symptoms of painful peripheral neuropathy); experiment: Clinical Trial BM 14330: multicentre, randomised, double-blind, placebo-controlled, same characteristics as Example 1; type: in vivo, human; conditions: for Patients with symptom: Pain / Patients with symptom: Pain, hyperaesthesia, paraesthesia: 3.0 g/day; for Patients with symptom: Pain: n = 181 type 2 diabetes patients without the symptom at basal; for Patients with symptom: Pain, hyperaesthesia, paraesthesia: n = 181 type 2 diabetes patients without the symptoms at basal
Description: as §1, §2, §3, §4
A multicentre randomised, double-blind, placebo-controlled clinical trial was conducted with the same characteristics as the clinical trial described in Example 1.

[3] = test system: diabetic patients suffering from neuropathy; conditions: cited from earlier work

CC(=O)O[C@H](CC(=O)[O-])C[N+](C)(C)C [Acetyl L-carnitine, acetyl L-carnitine]
Patients with symptom: Pain ([1]; 12 weeks): 17.1% | Patients with symptom: Pain, hyperaesthesia, paraesthesia ([1]; 12 weeks): 35.5% | Patients with symptom: Pain ([1]; 26 weeks): 20.3% | Patients with symptom: Pain, hyperaesthesia, paraesthesia ([1]; 26 weeks): 38.6% | Patients with symptom: Pain ([1]; 52 weeks): 29.5% | Patients with symptom: Pain, hyperaesthesia, paraesthesia ([1]; 52 weeks): 47.5% | Prevention of symptoms typical of diabetic painful peripheral neuropathy (pain, hyperaesthesia, paraesthesia) ([1]; patients without such symptoms at entry, only in type 2 diabetes and at the higher dose): capable not only of curing but also of preventing the symptoms | Ability to prevent the onset of symptoms associated with diabetic painful peripheral neuropathy ([1]; summary of Tables 1-3, 3 grams/day): statistically significant ability to prevent the onset of symptoms | Curative effect on symptoms of diabetic peripheral neuropathy already present at the start of the trial ([1]; treatment for 26 or 52 weeks, effect better only in patients with type 2 diabetes): capable of curing the symptoms of diabetic peripheral neuropathy | Patients with symptom: Pain ([2]; 12 weeks): 27.6% | Patients with symptom: Pain, hyperaesthesia, paraesthesia ([2]; 12 weeks): 42.5% | Patients with symptom: Pain ([2]; 52 weeks): 35.9% | Patients with symptom: Pain, hyperaesthesia, paraesthesia ([2]; 52 weeks): 48.1% | Patients with symptom: Pain ([2]; Table 5, head prints 12 weeks): 28.7% | Patients with symptom: Pain, hyperaesthesia, paraesthesia ([2]; Table 5, head prints 12 weeks): 43.1% | Ability to prevent the onset of symptoms associated with diabetic painful peripheral neuropathy ([2]; summary of Tables 4-6, 3 grams/day): statistically significant ability to prevent the onset of symptoms | Nerve conduction velocity ([3]; diabetic patients suffering from neuropathy, Drugs 1997 September: 54 (3) 414-421): improves nerve conduction velocity | Nerve conduction velocity ([3]; diabetic patients suffering from polyneuropathy, Journal of the Neurological Sciences, 1997, Suppl. to Vol 150): improves nerve conduction velocity | Relief of pain symptoms and regeneration of nerve fibres ([3]; patients suffering from stabilised diabetic neuropathy, Diabetes Care, 2005, 28(1): 89-94): useful for relieving the pain symptoms and for regenerating nerve fibres
